In patent US20140018552A1, “USE OF COMPOUNDS ISOLATED FROM MORUS BARK” (Dong Wha Pharm. Co., Ltd., priority 2011, published 2014):
Converted amounts (≈) assume the structure as drawn.

Test system: AGE production
Test: Assay of inhibition effect on AGE production (BSA with fructose and glucose, fluorescence analysis)
Type: biochemical, bovine
Conditions: 10 mg/ml BSA, 0.2 M fructose and glucose, 37° for 7 days; fluorescence Ex 360 nm/Em 465 nm; average ± standard deviation
Procedure: After preparing 10 mg/ml bovine serum albumin (BSA) dissolved in 50 mM of phosphate buffer (pH 7.4), AGE production was induced by culturing the mixture of 0.2 M of fructose and glucose at 37 °C for 7 days. The compounds extracted from Morus Bark and prepared from Example 1 to 8 was handled in the concentration of 0.1 μg/Ml respectively. (All the compounds were dissolved in 100% of ethanol.) Pyridoxamine known for AGE inhibitor was used as a positive control group. AGE production was induced by using only fructose and glucose to BSA culturing at 37 °C for 7 days. It was handled in the concentration of 0.1 μg/Ml to 1000 μg/Ml.
After 7 days, the amount of AGE produced in culture medium was measured by using microplate reader (Excitation: 360 nm, Emission: 465 nm, fluorescence analysis).
The rate of inhibiting the production was counted by the following numerical formula. […] Also, the average and standard deviation of IC50 value were calculated from at least 3 independent experiments.
The rate of inhibiting the production (%)=100−(Fluorescence intensity of Experimental group−Fluorescence intensity of Reference)/(Fluorescence intensity of Control group−Fluorescence intensity of Control-Reference)×100

Row | SMILES | IC50 [µM] | IC50 value [µg/mL]
1 | CC12CC(c3ccc(O)cc3O1)C13OC1(c1ccc(O)cc1O)Oc1cc(/C=C/c4ccc(O)cc4O)cc(O)c1C3C2=O (centres unmarked) [Example. 4, Kuwanon Z] | 46.1 ± 11.8 | 27.4 ± 7.0 (≈ 46.1 µM)
2 | Oc1cc(O)cc(/C=C/c2ccc(O)cc2O)c1 [Example. 5, Oxyresveratrol] | 19.3 ± 4.1 | 4.7 ± 1.0 (≈ 19.2 µM)
3 | O=C1CC(c2ccc(O)cc2O)Oc2cc(O)cc(O)c21 (centres unmarked) [Example. 6, 2′,4′,5,7-tetrahydroxyflavanone] | 96.2 ± 10.1 | 27.7 ± 2.9 (≈ 96.1 µM)
4 | CC1=C[C@H]2c3c(O)cc(-c4cc5ccc(O)cc5o4)cc3O[C@@]3(c4ccc(O)cc4O)Oc4cc(O)ccc4[C@H](C1)[C@@H]23 [Example. 1, Mulberrofuran G] | 79.5 ± 19.4 | 44.7 ± 10.9 (≈ 79.5 µM)

Second part, the compound after the results:

Row | IC50 [µM] | IC50 value [µg/mL] | SMILES
5 | 747 ± 213 | 125.7 ± 35.8 (≈ 747 µM) | Cc1ncc(CO)c(CN)c1O [Pyridoxamine, reference compound]
6 | 160 ± 16.7 | 70.1 ± 7.3 (≈ 160 µM) | CC(C)(O)CCc1c(-c2ccc(O)cc2O)oc2cc3c(c(O)c2c1=O)C=CC(C)(C)O3 [Example. 7, Morusignin L]
7 | 81.9 ± 3.3 | 24.9 ± 1.0 (≈ 81.8 µM) | O=C1c2c(O)cc(O)cc2OC(c2ccc(O)cc2O)C1O (centres unmarked) [Example. 8, Dihydromorin]
